This passage reports IC50 results from patent publication US20140323418A1, “SELECTIVE KINASE INHIBITORS” (PORTOLA PHARMACEUTICALS, INC., priority 2011, published 2014).

This assay deals with T1, full length active recombinant SYK enzyme (Homo sapiens, UniProt P43405).
T1 construct: full length active recombinant SYK enzyme (Millipore, Calif.); purchased Millipore
Description: Inhibition of Syk tyrosine phosphorylation activity (LANCE TR-FRET kinase assay). Format: biochemical. Conditions: 1 nM SYK, 550 nM substrate, 100 μM ATP, 1 hour room temperature. (TR-FRET usually uses a lanthanide donor and a delayed reading to cut background.)
Broadly, the IC50 is the point on the concentration scale where inhibition reaches its midpoint. As to `Cc1cccc(Nc2nc(N[C@@H]3CC[C@@H](C(=O)N4CCC4)C[C@@H]3N)ncc2C(N)=O)c1` [Example 191, 2-((1R,2S,4R)-2-amino-4-(azetidine-1-carbonyl)cyclohexylamino)-4-(m-tolylamino)pyrimidine-5-carboxamide], the half-maximal inhibitory concentration (IC50) was 0.001 to 0.01 µM.

As to `NC(=O)c1cnc(N[C@@H]2CCCC[C@@H]2N)nc1Nc1cc(Br)cc(-n2nccn2)c1` [Example 21, 2-((1R,2S)-2-aminocyclohexylamino)-4-(3-bromo-5-(2H-1,2,3-triazol-2-yl)phenylamino)pyrimidine-5-carboxamide], the IC50 lay in the range of 0.01 to 0.1 µM.

On to `CC(NC1CCCC[C@H]1Nc1ncc(C(N)=O)c(Nc2cccc(-n3nccn3)c2)n1)N[C@H]1CCCC[C@H]1Nc1ncc(C(N)=O)c(Nc2cccc(-n3nccn3)c2)n1` (stereo partly drawn) [Example 15, 2,2′-(1R,1′R,2S,2′S)-2,2′-(ethane-1,1-diylbis(azanediyl))bis(cyclohexane-2,1-diyl)bis(azanediyl)bis(4-(3-(2H-1,2,3-triazol-2-yl)phenylamino)pyrimidine-5-carboxamide)], for which the IC50 was 0.1 to 1 µM.

`NC(=O)c1cnc(N[C@@H]2CCCC(F)(F)[C@@H]2N)nc1Nc1csc2ncccc12` [Example 31, 2-(((1R,2R)-2-amino-3,3-difluorocyclohexyl)amino)-4-(thieno[2,3-b]pyridin-3-ylamino)pyrimidine-5-carboxamide]: the half-maximal inhibitory concentration (IC50) was in the range of 0.01 to 0.1 µM.

On to `CC(C)[C@@H](Nc1ncc(C(N)=O)c(Nc2ccc3ncccc3c2)n1)C(N)=O` [Example 69, (R)-2-(1-amino-3-methyl-1-oxobutan-2-ylamino)-4-(quinolin-6-ylamino)pyrimidine-5-carboxamide], for which the concentration for half-maximal inhibition (IC50) fell in the range of 0.01 to 0.1 µM.

With `CC[C@@H](Nc1ncc(C(N)=O)c(Nc2cc(-n3cccn3)cc(-n3cccn3)c2)n1)C(N)=O` [Example 250, (R)-2-((1-amino-1-oxobutan-2-yl)amino)-4-((3,5-di(1H-pyrazol-1-yl)phenyl)amino)pyrimidine-5-carboxamide], the IC50 fell in the range of 0.1 to 1 µM.

`NC(=O)c1cnc(N[C@@H]2CCCC[C@@H]2N)nc1Nc1ccc2cccnc2c1` [Example 75, 2-((1R,2S)-2-aminocyclohexylamino)-4-(quinolin-7-ylamino)pyrimidine-5-carboxamide]: the half-maximal inhibitory concentration (IC50) was in the range of 0.01 to 0.1 µM.

As to `CC[C@@H](Nc1nc(Nc2cc(C)ns2)ncc1C(N)=O)C(N)=O` [Example 205], the IC50 fell in the range of 0.1 to 1 µM.

As for `C=C1C[C@@H](Nc2ncc(C(N)=O)c(Nc3cccc(-n4nccn4)c3)n2)CN1` [Example 226], the IC50 is 0.1 to 1 µM.

For the compound `Cc1cccc(Nc2nc(N[C@H]3[C@@H](N)CCCC3(F)F)ncc2C(N)=O)c1` [Example 39, 2-(((1S,6S)-6-amino-2,2-difluorocyclohexyl)amino)-4-(m-tolylamino)pyrimidine-5-carboxamide], the IC50 lay within 0.01 to 0.1 µM.

`CCc1c(C)c2c(Nc3nc(N[C@@H]4CCCC[C@@H]4N)ncc3C(N)=O)cccc2n1C` [Example 100, 2-((1R,2S)-2-aminocyclohexylamino)-4-(2-ethyl-1,3-dimethyl-1H-indol-4-ylamino)pyrimidine-5-carboxamide]: the IC50 was in the range of 0.1 to 1 µM.

As to `CCCc1cc2c(Nc3nc(N[C@@H]4CCCC[C@@H]4N)ncc3C(N)=O)cccc2n1C` [Example 102, 2-((1R,2S)-2-aminocyclohexylamino)-4-(1-methyl-2-propyl-1H-indol-4-ylamino)pyrimidine-5-carboxamide], the IC50 is 0.01 to 0.1 µM.

Take `NC(=O)c1cnc(N[C@@H]2CCCC[C@@H]2N)nc1Nc1ccc(Cl)c(-n2nccn2)c1` [Example 22, 2-((1R,2S)-2-aminocyclohexylamino)-4-(4-chloro-3-(2H-1,2,3-triazol-2-yl)phenylamino)pyrimidine-5-carboxamide]: the IC50 lay within 0.001 to 0.01 µM.

With `Cc1cc2c(Nc3nc(NC[C@@H](N)CC(F)F)ncc3C(N)=O)cccc2n1C` [Example 87, (S)-2-(2-amino-4,4-difluorobutylamino)-4-(1,2-dimethyl-1H-indol-4-ylamino)pyrimidine-5-carboxamide], the IC50 is 0.01 to 0.1 µM.

Consider `COc1ccc(Nc2ncc(C(N)=O)c(N[C@H]3CC[C@H](N)CC3)n2)cc1` [Example 245, 4-(trans-4-aminocyclohexylamino)-2-(4-methoxyphenylamino)pyrimidine-5-carboxamide], for which the half-inhibitory concentration (IC50) is 0.1 to 1 µM.

`N#Cc1cccc(Nc2nc(N[C@@H]3CCOC[C@@H]3N)ncc2C(N)=O)c1` [Example 53, 2-(((3R,4R)-3-aminotetrahydro-2H-pyran-4-yl)amino)-4-((3-cyanophenyl)amino)pyrimidine-5-carboxamide]: the concentration for half-maximal inhibition (IC50) lay in the range of 0.01 to 0.1 µM.

`CC(C)[C@@H](Nc1ncc(C(N)=O)c(Nc2cccc(-n3cccn3)c2)n1)C1(N)CC1` [Example 140, (R)-4-(3-(1H-pyrazol-1-yl)phenylamino)-2-(1-(1-aminocyclopropyl)-2-methylpropylamino)pyrimidine-5-carboxamide]: the concentration for half-maximal inhibition (IC50) was in the range of 0.001 to 0.01 µM.

For the compound `CN1C(=O)Cc2c(Nc3nc(N[C@@H]4CCCC[C@@H]4N)ncc3C(N)=O)cccc21` [Example 96, 2-((1R,2S)-2-aminocyclohexylamino)-4-(1-methyl-2-oxoindolin-4-ylamino)pyrimidine-5-carboxamide], the IC50 was 0.1 to 1 µM.

As to `NC(=O)c1cnc(N[C@@H]2CCCC(F)(F)[C@@H]2N)nc1Nc1cccc(Cl)c1` [Example 28, 2-(((1R,2R)-2-amino-3,3-difluorocyclohexyl)amino)-4-((3-chlorophenyl)amino)pyrimidine-5-carboxamide], the IC50 was in the range of 0.01 to 0.1 µM.

Consider `NC(=O)c1cnc(N[C@@H]2CCCC[C@@H]2N)nc1Nc1cccc(Oc2nc3ccccc3s2)c1` [Example 204], for which the half-maximal inhibitory concentration (IC50) lay in the range of 0.01 to 0.1 µM.

In the case of `NC(=O)c1cnc(N[C@H](C2CC2)C2(N)CC2)nc1Nc1csc2ncccc12` [Example 171, (R)-2-(1-(1-aminocyclopropyl)(cyclopropyl)methylamino)-4-(thieno[2,3-b]pyridine-3-ylamino)pyrimidine-5-carboxamide], the IC50 lay in the range of 0.001 to 0.01 µM.

As to `Cc1ccc(Nc2nc(NC[C@@H](N)CC(F)F)ncc2C(N)=O)cc1` [Example 83, (S)-4-(p-toluidino)-2-(2-amino-4,4-difluorobutylamino)pyrimidine-5-carboxamide], the IC50 was 0.1 to 1 µM.

On to `N#Cc1ccc(Nc2nc(N[C@@H]3CCOC[C@@H]3N)ncc2C(N)=O)cc1` [Example 54, 2-(((3R,4R)-3-aminotetrahydro-2H-pyran-4-yl)amino)-4-((4-cyanophenyl)amino)pyrimidine-5-carboxamide], for which the IC50 fell in the range of 0.1 to 1 µM.

As to `CN1CCc2c(Nc3nc(NC[C@@H](N)CC(F)F)ncc3C(N)=O)cccc21` [Example 98, (S)-2-(2-amino-4,4-difluorobutylamino)-4-(1-methylindolin-4-ylamino)pyrimidine-5-carboxamide], the IC50 was 0.01 to 0.1 µM.

`CN(C)c1ncc(C(N)=O)c(Nc2cccc(-n3nccn3)c2)n1` [Example 3, 4-(3-(2H-1,2,3-triazol-2-yl)phenylamino)-2-(dimethylamino)pyrimidine-5-carboxamide]: the IC50 fell in the range of 0.1 to 1 µM.

As for `Cn1ccc2c(Nc3nc(N[C@@H]4CCNC4)ncc3C(N)=O)cccc21` [Example 212, (R)-4-((1-methyl-1H-indol-4-yl)amino)-2-(pyrrolidin-3-ylamino)pyrimidine-5-carboxamide], the IC50 was 0.01 to 0.1 µM.

Regarding `CC[C@@H](Nc1ncc(C(N)=O)c(Nc2cc(C)ns2)n1)C(N)=O` [Example 65, (R)-2-((1-amino-1-oxobutan-2-yl)amino)-4-((3-methylisothiazol-5-yl)amino)pyrimidine-5-carboxamide], the IC50 lay within 0.01 to 0.1 µM.

Regarding `NC(=O)c1cnc(N[C@@H]2CCOC[C@@H]2N)nc1Nc1ccccc1` [Example 52, 2-(((3R,4R)-3-aminotetrahydro-2H-pyran-4-yl)amino)-4-(phenylamino)pyrimidine-5-carboxamide], the IC50 is 0.1 to 1 µM.

As for `CC(=O)Oc1cnn(-c2cccc(Nc3nc(N[C@@H]4CCCC[C@@H]4N)ncc3C(N)=O)c2)n1` [Example 253, 2-(3-((2-(((1R,2S)-2-aminocyclohexyl)amino)-5-carbamoylpyrimidin-4-yl)amino)phenyl)-2H-1,2,3-triazol-4-yl acetate], the IC50 is over 1 µM.

Regarding `CC[C@@H](Nc1ncc(C(N)=O)c(Nc2ccc(C)cc2)n1)C1(N)CC1` [Example 130, (R)-2-(1-(1-aminocyclopropyl)propylamino)-4-(p-tolylamino)pyrimidine-5-carboxamide], the IC50 was 0.001 to 0.01 µM.

Take `NC(=O)c1cnc(N[C@@H]2CCCC(F)(F)[C@@H]2N)nc1Nc1cnc2ccccc2c1` [Example 168, 2-((1R,2R)-2-amino-3,3-difluorocyclohexylamino)-4-(quinolin-3-ylamino)pyrimidine-5-carboxamide]: the concentration for half-maximal inhibition (IC50) is 0.1 to 1 µM.

In the case of `Cc1cccc(Nc2nc(N[C@H](C)C3(N)CC3)ncc2C(N)=O)c1` [Example 145, (R)-2-(1-(1-aminocyclopropyl)ethylamino)-4-(m-tolylamino)pyrimidine-5-carboxamide], the 50% inhibitory concentration (IC50) lay within 0.001 to 0.01 µM.

On to `NC(=O)c1cnc(N[C@@H]2CCCC(F)(F)[C@@H]2N)nc1Nc1ccc2scnc2c1` [Example 30, 2-(((1R,2R)-2-amino-3,3-difluorocyclohexyl)amino)-4-(benzo[d]thiazol-5-ylamino)pyrimidine-5-carboxamide], for which the half-inhibitory concentration (IC50) fell in the range of 0.1 to 1 µM.

Regarding `NC(=O)c1cnc(NCC2(N)CC2)nc1Nc1cccc(-n2cccn2)c1` [Example 106, 4-(3-(1H-pyrazol-1-yl)phenylamino)-2-((1-aminocyclopropyl)methylamino)pyrimidine-5-carboxamide], the IC50 fell in the range of 0.01 to 0.1 µM.

Regarding `NC(=O)c1cnc(N[C@@H]2CCCC[C@@H]2N)nc1Nc1cncc(-n2cccn2)c1` [Example 48, 4-((5-(1H-pyrazol-1-yl)pyridin-3-yl)amino)-2-(((1R,2S)-2-aminocyclohexyl)amino)pyrimidine-5-carboxamide], the concentration for half-maximal inhibition (IC50) was in the range of 0.01 to 0.1 µM.
